From US20130183294A1, “METHODS OF USING FGF19 MODULATORS” (GENENTECH, INC., priority 2012, published 2013)

Tests used:
Caco-2 monolayers = experiment: Caco-2 permeability and taurocholate transport in transwell system; format: cell-based, human; details: 50 μM, 24 h, p value<0.001
Description: The Caco-2 human adenocarcinoma cell line and Eagle's Minimum Essential Medium (EMEM) were purchased from ATCC (American Type Culture Collection, Rockville, Md.). Caco-2 cells were seeded on transwell inserts (0.4 μm pore size, Corning, N.Y.) at a density of 1.5×10^5 cells/mL and cultured for 23 days with media changes 3 times per week. On day 23, the cells were treated with either isotype control antibody (100 μg/mL), FGF19 (gp120, Genentech Inc., CA) (500 ng/mL), anti-FGF19 (100 μg/mL), DCA (Sigma-Aldrich, St. Louis, Mo.) (50 μM) or DCA (50 μM) plus anti-FGF19 (100 μg/mL) for 24 h prior to the permeability experiments. The monolayers were equilibrated for 30 min in transport buffer (HBSS with 10 mM HEPES, pH 7.4) at 37° C. and the transepithelial electrical resistance [TEER cm2), membrane area 1.12 cm^2] of each well was measured using the volt-ohm meter and STX-2 electrode. The permeabilities of lucifer yellow (LY), and taurocholate were evaluated in the apical to basolateral (A-B) direction. […] The apparent permeability for taurocholate, and LY (Papp) was calculated using the following equation: Papp=dQ/dt×1/C0A where dQ/dt is the rate of compound appearance in the receiver compartment, C0 is the concentration in the donor compartment and A is the surface area of the insert. […]

Caco-2 cells = experiment: Gene expression (qRT-PCR) in intestinal epithelial (Caco-2) cells; format: cell-based, human; details: 50 μM, 24 h

SMILES: C[C@H](CCC(=O)O)[C@H]1CC[C@H]2[C@@H]3CC[C@@H]4C[C@H](O)CC[C@]4(C)[C@H]3C[C@H](O)[C@]12C [DCA, deoxycholic acid]
- taurocholate uptake, reduction vs. control (Caco-2 monolayers): −80%
- IBABP expression increase (Caco-2 cells; p value<0.0001): > 30 fold
- Ost-α expression increase (Caco-2 cells; p value<0.0015): 2 fold
- Ost-β expression increase (Caco-2 cells; p value<0.05): 1.3 fold
